Literature values in patent US7511156B2, “Analogs of Salinosporamide A” (President and Fellows of Harvard College, priority 2004, dated 2009).
Residues, ends and D or L forms follow the SMILES beside them. *: point of attachment. Cbz = O=C(OCc1ccccc1)*

Tested on: PC12 cells
Conditions: Tsubuki et al. 1993

CC(C)C[C@@H](C=O)NC(=O)[C@H](CC(C)C)NC(=O)[C@H](CC(C)C)NC(=O)OCc1ccccc1 [benzyloxycarbonyl (Z)-Leu-Leu-leucinal] (Cbz-Leu-Leu-Leu-aldehyde)
optimal concentration inducing neurite outgrowth: 30 nM
